Results reported in the supplement of paper PMC10307832.

Assays:
Experiment in all cases: relative viability (nuclei count vs DMSO), 5 days (fraction); higher = more cells survive
VX-11e = compound: CC1=CN=C(N=C1C2=CNC(=C2)C(=O)N[C@H](CO)C3=CC(=CC=C3)Cl)NC4=C(C=C(C=C4)F)Cl [VX-11e]
Method in brief: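 Vehicle-anchored 1536-well plates of lung cancer cell lines, held overnight at 37 °C, were pinned with five library-drug doses (not always all listed) spaced by √10. No medium change followed over the next 5 days, after which the cells were fixed, permeabilised and Hoechst-stained together and imaged at 4×. Nuclei were counted with MetaXpress, and viability is treated-well nuclei over vehicle-well nuclei, taken as a median across plates. Plates passed with control CV below 25% and at least one doubling.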

VX-11e + Luminespib = compound: CC1=CN=C(N=C1C2=CNC(=C2)C(=O)N[C@H](CO)C3=CC(=CC=C3)Cl)NC4=C(C=C(C=C4)F)Cl [VX-11e] + CCNC(=O)c1noc(-c2cc(C(C)C)c(O)cc2O)c1-c1ccc(CN2CCOCC2)cc1 [Luminespib] (partner 0.01 µM)
Method in brief: (§1)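 Values are medians from duplicate plates. Each reflects relative viability, defined as the nuclei count of treated wells over that of vehicle wells. Lung cancer cell lines in 1536-well plates were pin-tool dosed one day after seeding with one drug alone or with a fixed anchor-drug dose plus five library-drug doses (not always all listed) in √10 steps, then fixed, stained and imaged at 4× after 5 days.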

VX-11e + Foretinib = compound: CC1=CN=C(N=C1C2=CNC(=C2)C(=O)N[C@H](CO)C3=CC(=CC=C3)Cl)NC4=C(C=C(C=C4)F)Cl [VX-11e] + COc1cc2c(Oc3ccc(NC(=O)C4(C(=O)Nc5ccc(F)cc5)CC4)cc3F)ccnc2cc1OCCCN1CCOCC1 [Foretinib] (partner 0.25 µM)
Method in brief: as §1

VX-11e + OSI-027 = compound: CC1=CN=C(N=C1C2=CNC(=C2)C(=O)N[C@H](CO)C3=CC(=CC=C3)Cl)NC4=C(C=C(C=C4)F)Cl [VX-11e] + COc1cccc2cc(-c3nc([C@H]4CC[C@H](C(=O)O)CC4)n4ncnc(N)c34)[nH]c12 [OSI-027] (partner 0.5 µM)
Method in brief: as §1

VX-11e + Tozasertib = compound: CC1=CN=C(N=C1C2=CNC(=C2)C(=O)N[C@H](CO)C3=CC(=CC=C3)Cl)NC4=C(C=C(C=C4)F)Cl [VX-11e] + Cc1cc(Nc2cc(N3CCN(C)CC3)nc(Sc3ccc(NC(=O)C4CC4)cc3)n2)n[nH]1 [Tozasertib] (partner 0.1 µM)
Method in brief: as §1

VX-11e + Dasatinib = compound: CC1=CN=C(N=C1C2=CNC(=C2)C(=O)N[C@H](CO)C3=CC(=CC=C3)Cl)NC4=C(C=C(C=C4)F)Cl [VX-11e] + Cc1nc(Nc2ncc(C(=O)Nc3c(C)cccc3Cl)s2)cc(N2CCN(CCO)CC2)n1 [Dasatinib] (partner 0.075 µM)
Method in brief: as §1

VX-11e + Phenformin = compound: CC1=CN=C(N=C1C2=CNC(=C2)C(=O)N[C@H](CO)C3=CC(=CC=C3)Cl)NC4=C(C=C(C=C4)F)Cl [VX-11e] + N=C(N)NC(=N)NCCc1ccccc1 [Phenformin] (partner 250 µM)
Method in brief: as §1

NCI-H1623 showed a relative viability (VX-11e; 0.04 µM) of 0.967, a relative viability (VX-11e; 0.1265 µM) of 1.04 and a relative viability (VX-11e; 0.4 µM) of 0.724. The relative viability (VX-11e; 1.265 µM) was 0.678, the relative viability (VX-11e; 4 µM) was 0.561 and the relative viability (VX-11e + Luminespib; first compound 0.04 µM) was 0.434. The relative viability (VX-11e + Luminespib; first compound 0.1265 µM) was 0.492, the relative viability (VX-11e + Luminespib; first compound 0.4 µM) was 0.3 and the relative viability (VX-11e + Luminespib; first compound 1.265 µM) was 0.48. It also gave a relative viability (VX-11e + Luminespib; first compound 4 µM) of 0.337, a relative viability (VX-11e + Foretinib; first compound 0.04 µM) of 0.856 and a relative viability (VX-11e + Foretinib; first compound 0.1265 µM) of 0.934. For the same cell line, the relative viability (VX-11e + Foretinib; first compound 0.4 µM) was 0.588, the relative viability (VX-11e + Foretinib; first compound 1.265 µM) was 0.619 and the relative viability (VX-11e + Foretinib; first compound 4 µM) was 0.473. For the same cell line, the relative viability (VX-11e + OSI-027; first compound 0.04 µM) was 0.43, the relative viability (VX-11e + OSI-027; first compound 0.1265 µM) was 0.446 and the relative viability (VX-11e + OSI-027; first compound 0.4 µM) was 0.423. It also gave a relative viability (VX-11e + OSI-027; first compound 1.265 µM) of 0.307, a relative viability (VX-11e + OSI-027; first compound 4 µM) of 0.278 and a relative viability (VX-11e + Tozasertib; first compound 0.04 µM) of 0.396. It also gave a relative viability (VX-11e + Tozasertib; first compound 0.1265 µM) of 0.426, a relative viability (VX-11e + Tozasertib; first compound 0.4 µM) of 0.418 and a relative viability (VX-11e + Tozasertib; first compound 1.265 µM) of 0.38. It also gave a relative viability (VX-11e + Tozasertib; first compound 4 µM) of 0.23, a relative viability (VX-11e + Dasatinib; first compound 0.04 µM) of 0.526 and a relative viability (VX-11e + Dasatinib; first compound 0.1265 µM) of 0.624. The relative viability (VX-11e + Dasatinib; first compound 0.4 µM) was 0.369, the relative viability (VX-11e + Dasatinib; first compound 1.265 µM) was 0.457 and the relative viability (VX-11e + Dasatinib; first compound 4 µM) was 0.398. The relative viability (VX-11e + Phenformin; first compound 0.04 µM) was 0.53, the relative viability (VX-11e + Phenformin; first compound 0.1265 µM) was 0.623 and the relative viability (VX-11e + Phenformin; first compound 0.4 µM) was 0.433. The relative viability (VX-11e + Phenformin; first compound 1.265 µM) was 0.546 and the relative viability (VX-11e + Phenformin; first compound 4 µM) was 0.409.
